Experimental data: article PMC3961306, “Comparison of the Cancer Gene Targeting and Biochemical Selectivities of All Targeted Kinase Inhibitors Approved for Clinical Use” (PLoS ONE, 2014)
Where two headings read alike, the source gives them in different places.

Tests used:
[1] = target: panel of more than 300 wild-type and mutant kinases (313 kinase panel) (Homo sapiens, UniProt Q9UM73, R1275Q); test: Kinase profiling in a biochemical assay panel (mobility shift assays and ELISA), %-inhibition at 1 μM; selectivity entropy; details: kinase ALK(R1275Q); 1 μM compound
[2] = target: panel of more than 300 wild-type and mutant kinases (313 kinase panel) (Homo sapiens, UniProt P11362, V561M); test: as above; details: kinase FGFR1(V561M); compound at 1 μM
[3] = target: panel of more than 300 wild-type and mutant kinases (313 kinase panel) (Homo sapiens, UniProt P22612); test: as above; details: kinase PKACγ; 1 μM
[4] = target: panel of more than 300 wild-type and mutant kinases (313 kinase panel) (Homo sapiens, UniProt P35968); test: as above; details: kinase KDR; compound at 1 μM
[5] = target: panel of more than 300 wild-type and mutant kinases (313 kinase panel) (Homo sapiens, UniProt P15056); test: as above; details: kinase BRAF; 1 μM compound
[6] = target: panel of more than 300 wild-type and mutant kinases (313 kinase panel) (Homo sapiens, UniProt P07947, T348I); test: as above; details: kinase YES(T348I); compound at 1 μM
[7] = target: panel of more than 300 wild-type and mutant kinases (313 kinase panel) (Homo sapiens, UniProt P15056, V600E); test: as above; details: kinase BRAF(V600E); 1 μM compound
[8] = target: panel of more than 300 wild-type and mutant kinases (313 kinase panel) (Homo sapiens, UniProt P09619); test: as above; details: kinase PDGFRβ; 1 μM
[9] = target: panel of more than 300 wild-type and mutant kinases (313 kinase panel) (Homo sapiens, UniProt P00533, L858R/T790M); test: as above; details: kinase EGFR(T790M/L858R); compound at 1 μM
[10] = test system: forty-four human cancer cell lines; test: Cell proliferation assay (ATPlite, 72 hours) in the 44 cell line Oncolines panel; type: cell-based; details: Homo sapiens

`CO[C@H]1C[C@@H]2CC[C@@H](C)[C@@](O)(O2)C(=O)C(=O)N2CCCC[C@H]2C(=O)O[C@H]([C@H](C)C[C@@H]2CC[C@@H](OCCO)[C@H](OC)C2)CC(=O)[C@H](C)/C=C(\C)[C@@H](O)[C@@H](OC)C(=O)[C@H](C)C[C@H](C)/C=C/C=C/C=C/1C` [everolimus] was tested, and the “%-inhibition, ALK(R1275Q)” value [1] was -4.29%, the “%-inhibition of FGFR1(V561M)” value [2] was -12% and the “%-inhibition of PKACγ” value [3] was -7.41%. For the same molecule, the “%-inhibition of KDR” value [4] was -6.38%, the “%-inhibition, BRAF” value [5] was -6.54% and the “%-inhibition of YES(T348I)” value [6] was -0.414%. The “%-inhibition, BRAF(V600E)” value [7] was 2%, the “%-inhibition of PDGFRβ” value [8] was -3.52% and the “%-inhibition of EGFR(T790M/L858R)” value [9] was -5%. It also gave an IC50 ([10]; 769-P, cell line 769-P, read-out: cell panel IC50, 769-P) of 373 nM, an IC50 ([10]; 786-0, cell line 786-0, read-out: cell panel IC50, 786-0) of 204 nM and an IC50 ([10]; A 172, read-out: cell panel IC50, A-172, cell line A-172) of 50 nM. It also gave an IC50 ([10]; A204, cell line A-204, read-out: cell panel IC50, A-204) of 11900 nM, an IC50 ([10]; A498, read-out: cell panel IC50, A-498, cell line A-498) of 1240 nM and an IC50 ([10]; A549, read-out: cell panel IC50, A-549, cell line A-549) of 732 nM. It also gave an IC50 ([10]; A-375, cell line A375, read-out: cell panel IC50, A375) of 18700 nM, an IC50 ([10]; A-427, read-out: cell panel IC50, A-427, cell line A-427) of 94 nM and an IC50 ([10]; ACHN, cell line ACHN, read-out: cell panel IC50, ACHN) of 15100 nM. For the same molecule, the IC50 ([10]; AN3-CA, cell line AN3 CA, read-out: cell panel IC50, AN3 CA) was 104 nM, the IC50 ([10]; AU565, read-out: cell panel IC50, AU-565, cell line AU-565) was 27300 nM and the IC50 ([10]; BT-20, cell line BT-20, read-out: cell panel IC50, BT-20) was 7 nM. The IC50 ([10]; BT-549, read-out: cell panel IC50, BT-549, cell line BT-549) was 58 nM, the IC50 ([10]; BXPC-3, cell line BxPC-3, read-out: cell panel IC50, BxPC-3) was over 31600 nM and the IC50 ([10]; C-33-A, cell line C-33 A, read-out: cell panel IC50, C-33 A) was 20 nM. It also gave an IC50 ([10]; CAL-27, cell line CAL 27, read-out: cell panel IC50, CAL 27) of 2690 nM, an IC50 ([10]; CCRF-CEM, cell line CCRF-CEM, read-out: cell panel IC50, CCRF-CEM) of 1420 nM and an IC50 ([10]; DLD-1, cell line DLD-1, read-out: cell panel IC50, DLD-1) of 495 nM. The IC50 ([10]; FaDu, cell line FaDu, read-out: cell panel IC50, FaDu) was 1170 nM, the IC50 ([10]; HCT-15, cell line HCT-15, read-out: cell panel IC50, HCT-15) was 292 nM and the IC50 ([10]; HCT-116, read-out: cell panel IC50, HCT-116, cell line HCT-116) was 19100 nM. The IC50 ([10]; Hs-578T, cell line Hs 578T, read-out: cell panel IC50, Hs 578T) was 49 nM, the IC50 ([10]; Jurkat E6.1, cell line Jurkat E6.1, read-out: cell panel IC50, Jurkat E6.1) was 63 nM and the IC50 ([10]; K562, read-out: cell panel IC50, K-562, cell line K-562) was over 31600 nM. For the same molecule, the IC50 ([10]; LS174T, read-out: cell panel IC50, LS 174T, cell line LS 174T) was over 31600 nM, the IC50 ([10]; LoVo, cell line LoVo, read-out: cell panel IC50, LoVo) was over 31600 nM and the IC50 ([10]; MG-63, cell line MG-63, read-out: cell panel IC50, MG-63) was 453 nM. For the same molecule, the IC50 ([10]; MOLT-4, cell line MOLT-4, read-out: cell panel IC50, MOLT-4) was 153 nM, the IC50 ([10]; MeWo, cell line MeWo, read-out: cell panel IC50, MeWo) was over 31600 nM and the IC50 ([10]; NCI-H82, cell line NCI-H82, read-out: cell panel IC50, NCI-H82) was 4780 nM. The IC50 ([10]; NCI-H460, cell line NCI-H460, read-out: cell panel IC50, NCI-H460) was 3970 nM, the IC50 ([10]; OVCAR-3, cell line OVCAR-3, read-out: cell panel IC50, OVCAR-3) was 471 nM and the IC50 ([10]; RPMI-7951, cell line RPMI-7951, read-out: cell panel IC50, RPMI-7951) was 1.2 nM. The IC50 ([10]; SHP77, cell line SHP-77, read-out: cell panel IC50, SHP-77) was over 31600 nM, the IC50 ([10]; SK-N-AS, cell line SK-N-AS, read-out: cell panel IC50, SK-N-AS) was 299 nM and the IC50 ([10]; SW48, cell line SW48, read-out: cell panel IC50, SW48) was 18800 nM. It also gave an IC50 ([10]; SW480, cell line SW480, read-out: cell panel IC50, SW480) of 14800 nM, an IC50 ([10]; SW-620, cell line SW620, read-out: cell panel IC50, SW620) of 16700 nM and an IC50 ([10]; U2OS, cell line U-2 OS, read-out: cell panel IC50, U-2 OS) of 4250 nM. The IC50 ([10]; cell line J82, read-out: cell panel IC50, J82) was 433 nM, the IC50 ([10]; cell line PA-1, read-out: cell panel IC50, PA-1) was 3350 nM and the IC50 ([10]; cell line SJCRH30, read-out: cell panel IC50, SJCRH30) was 28400 nM. The IC50 ([10]; cell line SR, read-out: cell panel IC50, SR) was 109 nM and the IC50 ([10]; U-87 MG cell line, ATPlite, 72 hours, read-out: IC50 in cell proliferation assay (table S5 cellpanel data)) was 652 nM.
